Measurements taken from patent publication US20240041042A1, “1-(PYRIDYL)-5-AZINYLPYRAZOLE DERIVATIVES, AND THEIR USE FOR CONTROL OF UNDESIRED PLANT GROWTH” (Bayer Aktiengesellschaft, priority 2020, published 2024).
Like-named read-outs stand apart in the source and are kept apart here.

Tests used:
Assay type in all cases: in vivo
[1] = tested on: Triticum aestivum (TRZAS); settings: crop plant compatibility, effect vs untreated controls
Outline: (§1)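 One-leaf-stage crops (2–3 wk post-sowing, sandy loam, greenhouse) sprayed on green parts; 0.5% additive, 600 l/ha water. Rated by eye ~3 wk later, % vs untreated; suffixes a/b/c mark different dosages.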

[2] = tested on: Oryza sativa (ORYSA); settings: crop plant compatibility
Outline: as §1

[3] = tested on: Zea mays (ZEAMX); settings: for Post-emergence action against ZEAMX in % (crop plant compatibility): 20 g/ha, effect in comparison to untreated controls; for Post-emergence action against ZEAMX in %: crop plant compatibility, effect vs untreated controls
Outline: as §1

[4] = tested on: Setaria viridis (SETVI); experiment: Post-emergence herbicidal action against SETVI
Outline: (§2)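 Doses of 320 g/ha or lower, suffixes a, b and c marking different dosages, were applied post-emergence at the one-leaf stage in 600 l/ha water with 0.5% additive. Damage was assessed visually after about 3 weeks in the greenhouse.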

[5] = tested on: Pharbitis purpurea (PHBPU); experiment: Post-emergence herbicidal action against PHBPU
Outline: as §2

[6] = tested on: Viola tricolor (VIOTR); experiment: Post-emergence herbicidal action against VIOTR
Outline: as §2

[7] = tested on: Abutilon theophrasti (ABUTH); experiment: Post-emergence herbicidal action against ABUTH; settings: visual rating about 3 weeks after treatment vs untreated controls (100% = plants have died, 0% = like control plants)
Outline: as §2

[8] = tested on: Verconica persica (VERPE); experiment: Post-emergence herbicidal action against VERPE
Outline: as §2

[9] = tested on: Alopecurus myosuroides (ALOMY); experiment: Post-emergence herbicidal action against ALOMY; settings: visual rating about 3 weeks after treatment vs untreated controls (100% = plants have died, 0% = like control plants)
Outline: as §2

[10] = tested on: Amaranthus retroflexus (AMARE); experiment: Post-emergence herbicidal action against AMARE
Outline: as §2

[11] = tested on: Echinochloa crus-galli (ECHCG); experiment: Post-emergence herbicidal action against ECHCG
Outline: as §2

[12] = tested on: Avena fatua (AVEFA); experiment: Post-emergence herbicidal action against AVEFA; settings: visual rating about 3 weeks after treatment
Outline: as §2

[13] = tested on: Echinochloa crus-galli (ECHCG); experiment: Pre-emergence herbicidal action against ECHCG; settings: dosage 320 g/ha
Outline: (§3)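 Pre-emergence soil-surface spray, WP/EC formulation, 0.5% additive, 600 l/ha water, rates of 320 g/ha or lower. Greenhouse, ~3 wk. Visual score, % of untreated control (100% = plants dead, 0% = like control).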

[14] = tested on: Amaranthus retroflexus (AMARE); experiment: Pre-emergence herbicidal action against AMARE; settings: 320 g/ha, visual scoring after about 3 weeks vs untreated controls
Outline: as §3

[15] = tested on: Polygonum convolvulus (POLCO); experiment: Pre-emergence herbicidal action against POLCO; settings: dosage 320 g/ha
Outline: as §3

[16] = tested on: Verconica persica (VERPE); experiment: Pre-emergence herbicidal action against VERPE; settings: dosage 320 g/ha
Outline: as §3

[17] = tested on: Viola tricolor (VIOTR); experiment: Pre-emergence herbicidal action against VIOTR; settings: 320 g/ha, Viola tricolor
Outline: as §3

[18] = tested on: Matricaria inodora (MATIN); experiment: Post-emergence herbicidal action against MATIN; settings: dosage 320 g/ha
Outline: as §2

[19] = tested on: Polygonum convolvulus (POLCO); experiment: Post-emergence herbicidal action against POLCO
Outline: as §2

[20] = tested on: Digitaria sanguinalis (DIGSA); experiment: Post-emergence herbicidal action against DIGSA; settings: visual rating about 3 weeks after treatment
Outline: as §2

[21] = tested on: Lolium rigidum (LOLRI); experiment: Post-emergence herbicidal action against LOLRI
Outline: as §2

[22] = 20 g/ha, effect vs untreated controls
[23] = 80 g/ha, effect in comparison to untreated controls
[24] = 320 g/ha, effect in comparison to untreated controls
[25] = 320 g/ha, visual rating about 3 weeks after treatment

| SMILES | Post-emergence action against TRZAS in % ([1]; 20 g/ha) [%] | Post-emergence action against TRZAS in % ([1]; 80 g/ha) [%] | Post-emergence action against ORYSA in % [2, 22] [%] | Post-emergence action against ORYSA in % [2, 23] [%] | Post-emergence action against ORYSA in % [2, 24] [%] | Post-emergence action against ZEAMX in % (crop plant compatibility) [3] [%] | Post-emergence action against ZEAMX in % ([3]; 80 g/ha) [%] | Post-emergence action against ZEAMX in % ([3]; 320 g/ha) [%] | Post-emergence action against SETVI in % ([4]; dosage 320 g/ha) [%] | Post-emergence action against PHBPU in % ([5]; dosage 320 g/ha) [%] | Post-emergence action against VIOTR in % ([6]; 80 g/ha) [%] | Post-emergence action against VIOTR in % ([6]; 320 g/ha) [%] | Post-emergence action against ABUTH in % ([7]; 320 g/ha) [%] | Post-emergence action against VERPE in % ([8]; 320 g/ha, VERPE) [%] | Post-emergence action against VERPE in % ([8]; dosage 80 g/ha) [%] | Post-emergence action against ALOMY in % ([9]; 320 g/ha) [%] | Post-emergence action against AMARE in % [10, 25] [%] | Post-emergence action against ECHCG in % ([11]; dosage 320 g/ha) [%] | Post-emergence action against AVEFA in % ([12]; 320 g/ha) [%] | Post-emergence action against TRZAS in % ([1]; 320 g/ha) [%] | other results |
| --- | --- | --- | --- | --- | --- | --- | --- | --- | --- | --- | --- | --- | --- | --- | --- | --- | --- | --- | --- | --- | --- |
| Cc1ncccc1-n1nc(OCC(=O)OCc2ccccn2)c(Br)c1-c1cncc(F)c1 [II-39] | 0 | 20 | 0 | 0 | 0 | 0 | 0 | 20 | 90 | 90 | 80 | 90 | 80 | 90 | 80 | 90 | 80 | 90 | 90 | – | – |
| COC(=O)C(C)COC(=O)COc1nn(-c2ncccc2C(F)(F)F)c(-c2ccc(F)nc2)c1C1CC1(F)F (stereo not shown) [Example I-268] | 0 | 0 | – | – | – | 0 | 0 | – | – | 80 | 80 | 80 | 80 | 80 | – | – | – | – | – | – | – |
| COC(=O)CCOC(=O)COc1nn(-c2ccccn2)c(-c2ccc(F)nc2)c1C1CC1(F)F (stereo not shown) [Example I-248] | 0 | 0 | – | – | – | 0 | 0 | – | – | 90 | 80 | 80 | – | 80 | – | – | – | – | – | – | – |
| O=C(O)COc1nn(-c2ccccn2)c(-c2ccc(F)nc2)c1C1CC1(F)F (stereo not shown) [Example I-249] | 0 | 0 | – | – | – | 0 | 20 | – | – | – | 80 | 80 | 80 | 80 | – | – | – | – | – | 0 | – |
| COC(=O)CNC(=O)COc1nn(-c2ncccc2C(F)(F)F)c(-c2cncc(F)c2)c1Br [Example I-205] | – | 10 | – | 0 | 10 | – | 0 | 0 | – | – | – | – | – | – | – | – | – | – | – | 10 | Pre-emergence action against ECHCG in % [13]: 80%; Pre-emergence action against AMARE in % [14]: 80%; Pre-emergence action against POLCO in % [15]: 80%; Pre-emergence action against VERPE in % [16]: 100%; Pre-emergence action against VIOTR in % [17]: 100% |
| CC(C)=NOC(=O)COc1nn(-c2ncccc2F)c(-c2ccc(F)nc2)c1C1CC1 [Example I-366] | – | – | 0 | 20 | – | 10 | – | – | 90 | 80 | 80 | 90 | 90 | 90 | 80 | 90 | 80 | 90 | 90 | – | Post-emergence action against SETVI in % ([4]; dosage 80 g/ha): 90%; Post-emergence action against PHBPU in % ([5]; dosage 80 g/ha): 80%; Post-emergence action against ABUTH in % ([7]; 80 g/ha): 80%; Post-emergence action against MATIN in % [18]: 80%; Post-emergence action against POLCO in % ([19]; dosage 320 g/ha): 80%; Post-emergence action against DIGSA in % ([20]; 80 g/ha): 80%; Post-emergence action against DIGSA in % ([20]; 320 g/ha): 90%; Post-emergence action against ECHCG in % ([11]; dosage 80 g/ha): 90%; Post-emergence action against LOLRI in % ([21]; dosage 80 g/ha): 90%; Post-emergence action against LOLRI in % ([21]; dosage 320 g/ha): 90%; Post-emergence action against AVEFA in % ([12]; 80 g/ha): 90% |
| CCOC(=O)COc1nn(-c2ccccn2)c(-c2ccc(F)nc2)c1C1CC1(F)F (stereo not shown) [Example I-387] | 0 | 0 | – | – | – | 0 | 0 | 0 | – | – | – | – | – | – | – | – | – | – | – | 0 | – |
| O=C(COc1nn(-c2ncccc2F)c(-c2ccc(F)nc2)c1C1CC1)OCC(F)(F)F [Example I-326] | – | – | 0 | – | – | 0 | 0 | – | 90 | 90 | 90 | 90 | 80 | 90 | 90 | 90 | 90 | 90 | 90 | – | Post-emergence action against SETVI in % ([4]; dosage 80 g/ha): 90%; Post-emergence action against PHBPU in % ([5]; dosage 80 g/ha): 80%; Post-emergence action against ABUTH in % ([7]; 80 g/ha): 80%; Post-emergence action against MATIN in % [18]: 80%; Post-emergence action against ALOMY in % ([9]; 80 g/ha): 90%; Post-emergence action against POLCO in % ([19]; dosage 80 g/ha): 80%; Post-emergence action against POLCO in % ([19]; dosage 320 g/ha): 90%; Post-emergence action against AMARE in % ([10]; 80 g/ha, visual rating about 3 weeks after treatment vs untreated controls (100% = plants have died, 0% = like control plants)): 90%; Post-emergence action against DIGSA in % ([20]; 80 g/ha): 80%; Post-emergence action against DIGSA in % ([20]; 320 g/ha): 90%; Post-emergence action against ECHCG in % ([11]; dosage 80 g/ha): 90%; Post-emergence action against LOLRI in % ([21]; dosage 80 g/ha): 90%; Post-emergence action against LOLRI in % ([21]; dosage 320 g/ha): 90%; Post-emergence action against AVEFA in % ([12]; 80 g/ha): 90% |
| CCOC(=O)COc1nn(-c2cccnc2C)c(-c2ccc(F)nc2)c1Br [II-46] | 0 | 0 | 0 | 0 | 0 | 0 | 0 | 20 | – | – | – | 90 | – | 90 | – | 80 | – | – | – | – | Post-emergence action against POLCO in % ([19]; dosage 320 g/ha): 80% |
